Measured values published in PubChem BioAssay (NCI).
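Method: 48-hour compound exposure of cells in 96-well plates, five concentrations, linear interpolation of endpoints. GI50 is the concentration that inhibits growth by half. TGI: total growth inhibition.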

How the values were obtained:
Assay in all cases: NCI anticancer screen, dose series, 48 h
786-0 renal = tested on: 786-0 renal
A549 NSCLC = tested on: A549 NSCLC
HS 578T breast = tested on: HS 578T breast
MALME-3M melanoma = tested on: MALME-3M melanoma
OVCAR-8 ovarian = tested on: OVCAR-8 ovarian
RXF 393 renal = tested on: RXF 393 renal
SK-OV-3 ovarian = tested on: SK-OV-3 ovarian
UACC-257 melanoma = tested on: UACC-257 melanoma
SNB-75 CNS = tested on: SNB-75 CNS
SR leukemia = tested on: SR leukemia

Row | Structure (SMILES) | TGI (786-0 renal) [µM] | TGI (A549 NSCLC) [µM] | TGI (HS 578T breast) [µM] | TGI (MALME-3M melanoma) [µM] | TGI (OVCAR-8 ovarian) [µM] | TGI (RXF 393 renal) [µM] | TGI (SK-OV-3 ovarian) [µM] | TGI (UACC-257 melanoma) [µM] | TGI (SNB-75 CNS) [µM] | TGI (SR leukemia) [µM] | GI50 (786-0 renal) [µM] | GI50 (A549 NSCLC) [µM] | GI50 (OVCAR-8 ovarian) [µM] | GI50 (RXF 393 renal) [µM] | GI50 (SK-OV-3 ovarian) [µM] | GI50 (SR leukemia) [µM] | GI50 (UACC-257 melanoma) [µM] | GI50 (HS 578T breast) [µM] | GI50 (SNB-75 CNS) [µM]
1 | Nc1nc(-c2ccccc2)nc2c1[n+]([O-])c1ccccc1[n+]2[O-] | > 100 | > 100 | > 100 | > 100 | > 100 | > 100 | > 100 | > 100 |  |  |  |  |  |  |  |  |  |  | 
2 | CS(=O)(=O)N(N(CCCl)S(=O)(=O)c1ccccc1)S(C)(=O)=O | > 100 | > 100 |  | > 100 | > 100 | > 100 |  | > 100 | > 100 | > 100 |  |  |  |  |  |  |  |  | 
3 | O=[N+]([O-])c1cccc(C2ON2C2CCCCC2)c1 (stereo not drawn) | 31.2 | 84.5 |  | 54.6 | 32.8 |  | > 100 | 49.6 | > 100 | 7.81 |  |  |  |  |  |  |  |  | 
4 | C1=CC=C2NCCCNC3=CC=CC=CC3=NCCCN=C2C=C1 | > 100 | > 100 |  |  | > 100 |  | > 100 |  | > 100 |  |  |  |  |  |  |  |  |  | 
5 | O=C(CC1(O)C(=O)Nc2c(Cl)cc(Cl)cc21)c1cccc2ccccc12 (stereo not drawn) | 29.7 | 29.8 |  | 35.2 | 32.2 | 37.1 | 30.2 | 29.8 | 33.1 | 38.5 |  |  |  |  |  |  |  |  | 
6 | O=C(Cc1nc2ccccc2s1)Nc1cccc(C(F)(F)F)c1 | 27.2 | 45.4 |  | 30.8 | 38.1 | 32.3 | 44.3 | 28.7 | 26.8 |  |  |  |  |  |  |  |  |  | 
7 | O=[N+]([O-])c1cccc(-c2oc(C=Nc3ccccc3)c([N+](=O)[O-])c2-c2cccc([N+](=O)[O-])c2)c1 | > 100 | > 100 |  | > 100 | > 100 | > 100 | > 100 | > 100 | > 100 |  |  |  |  |  |  |  |  |  | 
8 | CCC(=O)c1c(NOC2OC(COC(C)=O)C(OC(C)=O)C(OC(C)=O)C2OC(C)=O)nc(OC)n(C)c1=O (stereo not drawn) | > 100 | > 100 |  |  | > 100 | > 100 |  |  | > 100 | > 100 |  |  |  |  |  |  |  |  | 
9 | CC(C)CCN=C(N)c1ccc(N2CCN(c3ccc(C(N)=NCCC(C)C)cc3)CC2)cc1 | 38 | > 100 |  |  | > 100 | 44.9 | 25.5 | 82.3 |  | 7.44 | 6.58 | 7.61 | 6.57 | 7.89 | 4.45 | 2.73 | 12.9 |  | 
10 | C=C1CCC2C(C)(C)CCC[C@]2(C)[C@H]1CO (stereo partly drawn) | > 100 | > 100 | > 100 |  | > 100 | > 100 |  | > 100 |  |  | 57.3 | 73.9 | 76.1 | > 100 |  |  | > 100 | > 100 | 
11 | COC1OC(COCc2ccc(Cl)cc2)C(OCc2ccc(Cl)cc2)C1N=[N+]=[N-] (stereo not drawn) | 16.8 | 16 |  | > 100 | > 100 | > 100 | > 100 | > 100 | > 100 | > 100 |  |  |  |  |  |  |  |  | 
12 | CN1c2ccccc2C(C)(C)C12C=Cc1cc(O)ccc1O2 (stereo not drawn) | 8.96 | 19.9 | 5.17 |  | 12.9 |  | 8.81 | 12.1 | 8.4 |  | 2.77 | 4.46 | 3.16 |  | 3.41 |  | 2.94 | 1.97 | 2.47
13 | CC1(C)Cc2cc(C(=O)O)c3c(c2C1=O)COCC3 | > 100 | > 100 |  | > 100 | > 100 | > 100 | > 100 | > 100 | > 100 | > 100 |  |  |  |  |  |  |  |  | 
14 | C=C1CC/C=C(\C)C(=O)C[C@@H]2[C@@H]1CC2(C)C | 6.69 | > 56 |  | 10.5 | 29.7 | 4.33 | > 57.5 | 16 | 26.3 |  |  |  |  |  |  |  |  |  | 
15 | O=C(CCC(=O)C(C(=O)c1ccccc1)c1ccccc1)Nc1cccc(C(F)(F)F)c1 (stereo not drawn) | > 100 | > 100 |  | > 100 | > 100 |  | > 100 | > 100 |  |  |  |  |  |  |  |  |  |  | 
16 | Fc1ccccc1C1CC(c2ccc3ccccc3c2)=Nc2ccccc2S1 (stereo not drawn) | > 100 | > 100 |  | > 100 | > 100 | > 100 | > 100 | > 100 |  | > 100 |  |  |  |  |  |  |  |  | 
17 | CC1C[C@@H]2C(=O)NC(=O)[C@@H]2c2c1c1ccccc1n2C (stereo partly drawn) | > 100 | > 100 |  | > 100 | > 100 | > 100 | > 100 | > 100 | > 100 |  |  |  |  |  |  |  |  |  | 
